Reference: US20210145964A1, “STROMA-TARGETING TREATMENT FOR PATIENTS WITH ELEVATED ADAM12 LEVELS” (Academisch Medisch Centrum, priority 2019, published 2021)

Tested on: metastatic adenocarcinoma of the pancreas
Assay: MPACT phase III trial, overall survival by plasma ADAM12 group
Settings: poorest-outcome group: ADAM12 became detectable or increased at cycle 2
Protocol: In the MPACT trial cohort, collection of plasma samples for biomarker development was optional and separate written consent was obtained for sample collection and biomarker analysis. […] All patients provided informed consent. […] Patients were randomized 1:1 (stratified by performance status, presence of liver metastases, and region) to receive nab-paclitaxel 125 mg/m^2 plus gemcitabine 1,000 mg/m^2 on days 1, 8, and 15 every 28 days or gemcitabine alone 1,000 mg/m^2 on days 1, 8, 15, 22, 29, 36, and 43 in 56 days (cycle 1) and then on days 1, 8, and 15 every 28 days (cycle≥2). Treatment continued until disease progression or unacceptable toxicity.
MPACT trial blood samples were collected in EDTA tubes to chelate calcium and prevent blood clotting, and storage at −80° C. until analysis. To allow the analysis of these plasma samples using the ADAM12 DuoSet ELISA, recalcification was required. […]
For the MPACT cohort, baseline ADAM12 values were categorized into undetectable (0) and detectable (>0). The fold change of ADAM12 at cycle 2, day 1 (C2D1) from baseline (cycle 1, day 1; C1D1) was calculated by the results at C2D1 divided by the value at C1D1. […] All eligible samples were measured and no power calculation was performed. Overall survival was analyzed using Kaplan-Meier method and log-rank test. […]

Nc1ccn([C@@H]2O[C@H](CO)[C@@H](O)C2(F)F)c(=O)n1 [gemcitabine]
overall survival: 6.9 months
